Legend:
[1] = Procedure: Methods: The trial was a Phase 1, single center, double-blind, placebo-controlled, sequential group, acute dose escalation study of the safety and pharmacokinetics of seven (7) CX157 dose levels in healthy male volunteers. Each of the seven (7) dose groups consisted of six (6) subjects, with the exception of cohort 2 (CX157 10 mg or placebo) which enrolled only five (5) subjects. Within each dose group, four (4) subjects were randomized to CX157 and two (2) subjects to placebo. Subjects were normal healthy volunteers confined to the study center for approximately 4 days, beginning approximately 16 hours before exposure to study drug and ending approximately 48 hours after exposure to study drug. Safety and tolerability was assessed for each dose group by the Principal Investigator before advancing to the next scheduled dose group. CX157 was administered as a fully solubilized microemulsion in Labrasol™
Oxidase MAO-B Peripheral = target: T1, Oxidase MAO-B Peripheral (Rattus norvegicus, UniProt P19643); assay: NovaScreen ligand-binding screen, MAO-B; settings: 10.0 nM and 100 nM
T1 construct: purchased NovaScreen
T1 sequence (P19643 1-520): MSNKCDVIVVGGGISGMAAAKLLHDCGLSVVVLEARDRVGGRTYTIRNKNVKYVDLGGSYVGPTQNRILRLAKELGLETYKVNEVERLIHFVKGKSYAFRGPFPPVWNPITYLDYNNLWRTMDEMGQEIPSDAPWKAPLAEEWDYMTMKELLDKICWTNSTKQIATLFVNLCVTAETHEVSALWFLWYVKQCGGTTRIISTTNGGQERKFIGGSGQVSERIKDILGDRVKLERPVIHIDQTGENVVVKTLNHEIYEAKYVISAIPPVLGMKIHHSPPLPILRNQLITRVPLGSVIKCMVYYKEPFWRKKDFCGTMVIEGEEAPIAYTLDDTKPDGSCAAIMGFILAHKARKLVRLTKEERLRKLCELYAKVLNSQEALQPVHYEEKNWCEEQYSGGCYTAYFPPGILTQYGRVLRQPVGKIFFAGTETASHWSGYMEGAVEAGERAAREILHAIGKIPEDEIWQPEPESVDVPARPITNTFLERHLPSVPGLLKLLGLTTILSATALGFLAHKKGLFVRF
Procedure: Methods: Investigational drug candidates CX157 were analyzed in NovaScreen's bank of ligand-binding reactions to test for specificity. CX157 was screened at concentrations of both 10.0 nM and 100 nM as potential competitors in binding reactions involving nine classes containing 69 binding sites. The following binding reactions are tested: Adenosine Non-selective, Adrenergic Alpha 1 Non-selective, Adrenergic Alpha 2 Non-selective, Adrenergic Beta Non-selective, Dopamine Transporter, Dopamine Non-selective, GABA A Agonist Site, GABA A BDZ alpha 1 site, GABA B, Glutamate AMPA Site (Ionotropic), Glutamate Kainate Site (Ionotropic), Glutamate NMDA Agonist Site (Ionotropic), Glutamate NMDA Glycine (Stry-insens Site) (Ionotrophic), Glycine Strychnine-sensitive, Histamine H1, Histamine H2, Histamine H3, Melatonin Non-selective, Muscarinic M1 (hr), Muscarinic M2 (hr), Muscarinic Non-selective Central, Muscarinic Non-selective Peripheral, Nicotinic (α-BnTx insensitive) Neuronal, Norepinephrine Transporter, Opioid Non-selective, Orphanin (hr), Serotonin Transporter, Serotonin Non-selective, Sigma Non-selective, Estrogen, Testosterone (cytosolic), Calcium Channel Type L (Dihydropyridine Site), Calcium Channel Type N, Potassium Channel ATP-Sensitive, Potassium Channel Ca2+ Act. VI, Potassium Channel I[Kr]

[2] = Plasma and brain CX157 concentrations after oral dosing in rats; settings: rat; for Kp at 2 h / Kp at 4 h / Kp at 8 h / Kp at 18 h / Kp at 24 h / concentration at 0 h / concentration at 2 h / concentration at 4 h / concentration at 8 h / concentration at 18 h / concentration at 24 h: male, Sprague-Dawley, po
MAO-A = target: T2, MAO-A (Homo sapiens, UniProt P21397); settings: cited from earlier work
T2 sequence (P21397 1-527): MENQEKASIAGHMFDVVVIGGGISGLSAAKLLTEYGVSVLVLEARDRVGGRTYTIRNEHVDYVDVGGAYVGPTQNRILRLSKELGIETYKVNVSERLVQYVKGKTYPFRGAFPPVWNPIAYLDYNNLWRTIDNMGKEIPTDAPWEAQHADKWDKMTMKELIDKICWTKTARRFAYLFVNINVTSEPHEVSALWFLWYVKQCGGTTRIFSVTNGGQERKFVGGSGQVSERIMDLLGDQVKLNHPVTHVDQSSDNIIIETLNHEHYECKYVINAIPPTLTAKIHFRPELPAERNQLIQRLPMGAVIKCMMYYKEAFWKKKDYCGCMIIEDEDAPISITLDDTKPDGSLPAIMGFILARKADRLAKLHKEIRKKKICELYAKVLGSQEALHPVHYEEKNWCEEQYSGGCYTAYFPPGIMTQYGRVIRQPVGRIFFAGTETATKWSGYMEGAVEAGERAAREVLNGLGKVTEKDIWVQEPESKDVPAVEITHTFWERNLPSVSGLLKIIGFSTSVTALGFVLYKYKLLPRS

[3] = brain and plasma, 5 mg/kg, mean brain/plasma ratio of CX157 concentrations, 5 mg/kg oral
[4] = brain and plasma, 10 mg/kg, mean brain/plasma ratio of CX157 concentrations, 10 mg/kg oral
[5] = brain/plasma, 1 mg/kg, mean brain/plasma ratio of CX157 concentrations, 1 mg/kg oral

O=S1(=O)c2ccc(F)cc2Oc2cc(OCC(F)(F)F)ccc21 [CX157, 3-fluoro-7(2,2,2-trifluorethoxy)phenoxathiine-10,10-dioxide]
percent of subjects experiencing adverse events ([1]; all CX157 groups, single doses): 89% | safety and tolerability ([1]; healthy volunteers, single dose escalation): safe and well tolerated | binding to MAO-B (Oxidase MAO-B Peripheral): did not bind to MAO-B | Kp at 2 h [2, 3]: 2.5 | Kp at 4 h ([2]; brain and plasma, 5 mg/kg, mean brain/plasma ratio of CX157 concentrations, 5 mg/kg oral, 4 h): 2.2 | Kp at 8 h [2, 3]: 5 | Kp at 18 h [2, 3]: 3.7 | Kp at 24 h [2, 3]: 7.4 | Kp at 2 h [2, 4]: 3.1 | Kp at 4 h ([2]; brain and plasma, 10 mg/kg, mean brain/plasma ratio of CX157 concentrations, 10 mg/kg oral, 4 h): 1.9 | Kp at 8 h [2, 4]: 2.2 | Kp at 18 h [2, 4]: 7.2 | Kp at 24 h [2, 4]: 8.5 | concentration at 0 h ([2]; brain, 1 mg/kg): 0 ng/mL | concentration at 2 h ([2]; brain, 1 mg/kg): 103 ng/mL | concentration at 4 h ([2]; brain, 1 mg/kg): 71.7 ng/mL | concentration at 8 h ([2]; brain, 1 mg/kg): 76.5 ng/mL | concentration at 18 h ([2]; brain, 1 mg/kg): 17.3 ng/mL | concentration at 24 h ([2]; brain, 1 mg/kg): 13.2 ng/mL | concentration at 0 h ([2]; brain, 5 mg/kg): 0 ng/mL | concentration at 2 h ([2]; brain, 5 mg/kg): 447 ng/mL | concentration at 4 h ([2]; brain, 5 mg/kg): 386 ng/mL | concentration at 8 h ([2]; brain, 5 mg/kg): 535 ng/mL | concentration at 18 h ([2]; brain, 5 mg/kg): 140 ng/mL | concentration at 24 h ([2]; brain, 5 mg/kg): 85.8 ng/mL | concentration at 0 h ([2]; brain, 10 mg/kg): 0 ng/mL | concentration at 2 h ([2]; brain, 10 mg/kg): 387 ng/mL | concentration at 4 h ([2]; brain, 10 mg/kg): 513 ng/mL | concentration at 8 h ([2]; brain, 10 mg/kg): 540 ng/mL | concentration at 18 h ([2]; brain, 10 mg/kg): 56.6 ng/mL | concentration at 24 h ([2]; brain, 10 mg/kg): 86.6 ng/mL | Kp at 4 h ([2]; brain/plasma, 1 mg/kg, brain concentration higher than plasma concentration, e.g. 4 hours after a 1 mg/kg oral dose): ≤ 10 | Kp at 2 h [2, 5]: 7.4 | Kp at 4 h ([2]; brain/plasma, 1 mg/kg, mean brain/plasma ratio of CX157 concentrations, 1 mg/kg oral, 4 h): 10.3 | Kp at 8 h [2, 5]: 6.5 | Kp at 18 h [2, 5]: 5.7 | Kp at 24 h [2, 5]: 4.8 | concentration at 0 h ([2]; plasma, 1 mg/kg): 0 ng/mL | concentration at 2 h ([2]; plasma, 1 mg/kg): 20 ng/mL | concentration at 4 h ([2]; plasma, 1 mg/kg): 9.9 ng/mL | concentration at 8 h ([2]; plasma, 1 mg/kg): 13.4 ng/mL | concentration at 18 h ([2]; plasma, 1 mg/kg): 4.5 ng/mL | concentration at 24 h ([2]; plasma, 1 mg/kg): 3.2 ng/mL | concentration at 0 h ([2]; plasma, 5 mg/kg): 0 ng/mL | concentration at 2 h ([2]; plasma, 5 mg/kg): 184 ng/mL | concentration at 4 h ([2]; plasma, 5 mg/kg): 214 ng/mL | concentration at 8 h ([2]; plasma, 5 mg/kg): 189 ng/mL | concentration at 18 h ([2]; plasma, 5 mg/kg): 26.8 ng/mL | concentration at 24 h ([2]; plasma, 5 mg/kg): 14.3 ng/mL | concentration at 0 h ([2]; plasma, 10 mg/kg): 0 ng/mL | concentration at 2 h ([2]; plasma, 10 mg/kg): 158 ng/mL | concentration at 4 h ([2]; plasma, 10 mg/kg): 412 ng/mL | concentration at 8 h ([2]; plasma, 10 mg/kg): 257 ng/mL | concentration at 18 h ([2]; plasma, 10 mg/kg): 8.5 ng/mL | concentration at 24 h ([2]; plasma, 10 mg/kg): 5.4 ng/mL | blood-brain-barrier penetration ([2]; oral): penetrated the blood-brain-barrier | time of maximum plasma levels ([2]; oral 1, 5, 10 mg/kg): two to four hours | pharmacokinetic half-life in brain versus plasma ([2]; oral, particularly 10 mg/kg): longer pharmacokinetic half-life in the brain than in plasma | potency for MAO-A inhibition relative to moclobemide (MAO-A): more than 100 times
